Measured values: PubChem BioAssay AID248 (DTP/NCI, 2004)
Values joined by “and” are separate entries in the source; they are usually repeats but may differ in a detail not shown here. Identical values can stand only once. Toxic doses and inconclusive results are not listed. No stated cut-off is given here; in the data, active means T/C of 150% or more; inactive means T/C below 125%.

Tested on: L1210 leukemia ip in BDF1 mice, survival T/C
Experiment: NCI In Vivo Anticancer Drug Screen. Data for tumor model L1210 Leukemia (intraperitoneal) in B6D2F1 (BDF1) mice
Details: endpoint: mean survival time, higher = longer survival
Protocol: The antitumor activity of compounds was measured in mice bearing transplantable tumors. Survival or tumor size were measured and the results are expressed as the measurement made in the treated group (T) divided by the measurement made in the vehicle treated control group (C). The tumor model used in this assay is L1210 Leukemia (intraperitoneal) in B6D2F1 (BDF1) mice

[1] = dose: 100.0 mg/kg/injection, schedule: Q04DX003 (ip), vehicle: saline
[2] = dose: 200.0 mg/kg/injection, schedule: Q04DX003 (ip), vehicle: saline
[3] = dose: 400.0 mg/kg/injection, schedule: Q04DX003 (ip), vehicle: saline
[4] = dose: 100.0 mg/kg/injection, schedule: Q01DX009 (ip), vehicle: Klucel (hydroxypropylcellulose) (HPC)
[5] = dose: 200.0 mg/kg/injection, schedule: Q01DX009 (ip), vehicle: Klucel (hydroxypropylcellulose) (HPC)
[6] = dose: 100.0 mg/kg/injection, schedule: Q04DX002 (ip), vehicle: Klucel (hydroxypropylcellulose) (HPC)
[7] = dose: 200.0 mg/kg/injection, schedule: Q04DX002 (ip), vehicle: Klucel (hydroxypropylcellulose) (HPC)
[8] = dose: 100.0 mg/kg/injection, schedule: Q01DX009 (ip), vehicle: saline with Tween-80
[9] = dose: 100.0 mg/kg/injection, schedule: Q04DX002 (ip), vehicle: saline with Tween-80
[10] = dose: 100.0 mg/kg/injection, schedule: Q04DX003 (ip), vehicle: saline with Tween-80
[11] = dose: 200.0 mg/kg/injection, schedule: Q01DX009 (ip), vehicle: saline with Tween-80
[12] = dose: 200.0 mg/kg/injection, schedule: Q04DX002 (ip), vehicle: saline with Tween-80
[13] = dose: 200.0 mg/kg/injection, schedule: Q04DX003 (ip), vehicle: saline with Tween-80
[14] = dose: 400.0 mg/kg/injection, schedule: Q01DX009 (ip), vehicle: saline with Tween-80
[15] = dose: 400.0 mg/kg/injection, schedule: Q04DX002 (ip), vehicle: saline with Tween-80
[16] = dose: 400.0 mg/kg/injection, schedule: Q04DX003 (ip), vehicle: saline with Tween-80
[17] = dose: 50.0 mg/kg/injection, schedule: Q01DX009 (ip), vehicle: saline with Tween-80
[18] = dose: 400.0 mg/kg/injection, schedule: Q01DX009 (ip), vehicle: Klucel (hydroxypropylcellulose) (HPC)
[19] = dose: 400.0 mg/kg/injection, schedule: Q04DX002 (ip), vehicle: Klucel (hydroxypropylcellulose) (HPC)
[20] = dose: 100.0 mg/kg/injection, schedule: Q01DX001 (ip), vehicle: saline
[21] = dose: 200.0 mg/kg/injection, schedule: Q01DX001 (ip), vehicle: saline

Measured: T/C

CC(=O)N(C)c1ccc(NC(=O)Nc2ccc([N+](=O)[O-])cc2Cl)cc1
inactive: [1] 96 % of control | [2] 95 % of control | [3] 88 % of control

NC1=NC(=O)C(c2ccccc2)O1 (stereo not drawn)
inactive: dose: 25.0 mg/kg/injection, schedule: Q01DX009 (ip), vehicle: Klucel (hydroxypropylcellulose) (HPC) 88 % of control | dose: 25.0 mg/kg/injection, schedule: Q04DX003 (ip), vehicle: Klucel (hydroxypropylcellulose) (HPC) 92 % of control | dose: 50.0 mg/kg/injection, schedule: Q01DX009 (ip), vehicle: Klucel (hydroxypropylcellulose) (HPC) 94 % of control | dose: 50.0 mg/kg/injection, schedule: Q04DX003 (ip), vehicle: Klucel (hydroxypropylcellulose) (HPC) 95 % of control | [4] 91 % of control | dose: 100.0 mg/kg/injection, schedule: Q04DX003 (ip), vehicle: Klucel (hydroxypropylcellulose) (HPC) 103 % of control | [5] 102 % of control | dose: 200.0 mg/kg/injection, schedule: Q04DX003 (ip), vehicle: Klucel (hydroxypropylcellulose) (HPC) 103 % of control | dose: 400.0 mg/kg/injection, schedule: Q04DX003 (ip), vehicle: Klucel (hydroxypropylcellulose) (HPC) 89 % of control

O=[N+]([O-])c1ccc([S][Pb]([c]2ccccc2)([c]2ccccc2)[c]2ccccc2)cc1
inactive: [6] 111 % of control | [7] 93 % of control

CC(=O)Nc1ccc(NC(=O)c2ccccc2Cl)cc1
inactive: [8] 93 % of control and 102 % of control | [9] 105 % of control and 90 % of control | [10] 98 % of control | [11] 96 % of control and 97 % of control | [12] 90 % of control and 91 % of control | [13] 95 % of control | [14] 117 % of control and 91 % of control | [15] 101 % of control and 110 % of control | [16] 98 % of control

Cc1ccc(Cl)cc1NC(=O)Nc1ccc(F)c([N+](=O)[O-])c1
inactive: dose: 12.5 mg/kg/injection, schedule: Q01DX009 (ip), vehicle: saline with Tween-80 95 % of control and 90 % of control | dose: 25.0 mg/kg/injection, schedule: Q01DX009 (ip), vehicle: saline with Tween-80 88 % of control and 92 % of control | dose: 25.0 mg/kg/injection, schedule: Q04DX003 (ip), vehicle: saline with Tween-80 90 % of control | [17] 92 % of control | dose: 50.0 mg/kg/injection, schedule: Q04DX003 (ip), vehicle: saline with Tween-80 87 % of control | [9] 96 % of control and 89 % of control | [11] 93 % of control and 100 % of control | [12] 101 % of control and 91 % of control | [14] 93 % of control and 104 % of control | [15] 93 % of control and 94 % of control

CCC(=O)OCC1OC(n2cnc3c(=S)nc(N)[nH]c32)C(OC(=O)CC)C1OC(=O)CC (stereo not drawn)
active: dose: 8.0 mg/kg/injection, schedule: Q01DX Z (ip), vehicle: carboxymethylcellulose (CMC) 169 % of control | dose: 12.0 mg/kg/injection, schedule: Q01DX Z (ip), vehicle: carboxymethylcellulose (CMC) 151 % of control and 154 % of control | dose: 27.0 mg/kg/injection, schedule: Q01DX Z (ip), vehicle: carboxymethylcellulose (CMC) 156 % of control | dose: 40.0 mg/kg/injection, schedule: Q01DX Z (ip), vehicle: carboxymethylcellulose (CMC) 151 % of control
inactive: dose: 0.8 mg/kg/injection, schedule: Q01DX Z (ip), vehicle: carboxymethylcellulose (CMC) 106 % of control | dose: 1.3 mg/kg/injection, schedule: Q01DX Z (ip), vehicle: carboxymethylcellulose (CMC) 110 % of control | dose: 2.0 mg/kg/injection, schedule: Q01DX Z (ip), vehicle: carboxymethylcellulose (CMC) 120 % of control | dose: 18.0 mg/kg/injection, schedule: Q01DX Z (ip), vehicle: carboxymethylcellulose (CMC) 101 % of control

CCOC(=O)C(CC)(OC(C)=O)C(=O)C(O)C1c2nc3ccccc3cc2CN1C(=O)CCOCc1ccccc1 (stereo not drawn)
inactive: dose: 10.0 mg/kg/injection, schedule: Q07DX002 (ip), vehicle: alcohol 99 % of control | dose: 20.0 mg/kg/injection, schedule: Q07DX002 (ip), vehicle: alcohol 101 % of control | dose: 40.0 mg/kg/injection, schedule: Q07DX002 (ip), vehicle: alcohol 106 % of control | dose: 80.0 mg/kg/injection, schedule: Q07DX002 (ip), vehicle: alcohol 94 % of control

Nc1c(F)c(F)c(N=Nc2ccccc2)c(F)c1F
inactive: dose: 100.0 mg/kg/injection, schedule: Q01DX001 (ip), vehicle: carboxymethylcellulose (CMC) 95 % of control | dose: 200.0 mg/kg/injection, schedule: Q01DX001 (ip), vehicle: carboxymethylcellulose (CMC) 96 % of control | dose: 400.0 mg/kg/injection, schedule: Q01DX001 (ip), vehicle: carboxymethylcellulose (CMC) 95 % of control

O=C(Nc1cccc([N+](=O)[O-])c1)Nc1ccc(F)c([N+](=O)[O-])c1
inactive: [4] 102 % of control | [5] 101 % of control | [18] 98 % of control

Clc1c2ccccc2cc2ccccc12
inactive: [6] 92 % of control | [7] 100 % of control | [19] 107 % of control

OCC1OC(O)C(O)C(O)C1O (stereo not drawn)
inactive: dose: 100.0 mg/kg/injection, schedule: Q01DX009 (ip), vehicle: saline 96 % of control | dose: 200.0 mg/kg/injection, schedule: Q01DX009 (ip), vehicle: saline 98 % of control | dose: 400.0 mg/kg/injection, schedule: Q01DX009 (ip), vehicle: saline 107 % of control | dose: 500.0 mg/kg/injection, schedule: Q01DX009 (ip), vehicle: saline 93 % of control | dose: 500.0 mg/kg/injection, schedule: Q04DX003 (ip), vehicle: saline 96 % of control | dose: 1000.0 mg/kg/injection, schedule: Q01DX009 (ip), vehicle: saline 90 % of control | dose: 1000.0 mg/kg/injection, schedule: Q04DX003 (ip), vehicle: saline 96 % of control | dose: 2000.0 mg/kg/injection, schedule: Q01DX009 (ip), vehicle: saline 106 % of control | dose: 2000.0 mg/kg/injection, schedule: Q04DX003 (ip), vehicle: saline 93 % of control | dose: 4000.0 mg/kg/injection, schedule: Q01DX009 (ip), vehicle: saline 102 % of control | dose: 4000.0 mg/kg/injection, schedule: Q04DX003 (ip), vehicle: saline 94 % of control

CCN(CC)CCSc1ccnc2cc(Cl)ccc12
inactive: [1] 94 % of control | [2] 96 % of control | [3] 100 % of control

CC(C)CC(C=NCC(CCN1CCOCC1)(CC(C)C)c1cccc2ccccc12)(CCN1CCOCC1)c1cccc2ccccc12 (stereo not drawn)
inactive: [4] 94 % of control | [5] 90 % of control | [18] 92 % of control

O=C(O)c1ccc([N+](=O)[O-])cc1S(=O)(=O)O
inactive: [20] 102 % of control | [21] 102 % of control | dose: 400.0 mg/kg/injection, schedule: Q01DX001 (ip), vehicle: saline 100 % of control

CC(C)(C#N)NC(=O)NC(C)(C)C#N
inactive: [17] 101 % of control | [8] 97 % of control | [11] 97 % of control

O=C(O)C1=CCCC1
inactive: dose: 222.0 mg/kg/injection, schedule: Q01DX Z (ip), vehicle: saline 103 % of control | dose: 333.0 mg/kg/injection, schedule: Q01DX Z (ip), vehicle: saline 102 % of control | dose: 500.0 mg/kg/injection, schedule: Q01DX Z (ip), vehicle: saline 96 % of control

Cc1ccc(C(=O)N/N=C/c2ccc(Cl)cc2Cl)cc1
inactive: [6] 100 % of control | [7] 95 % of control | [19] 95 % of control

CN(C)c1ccc(C(=C2C=CC(=[N+](C)C)C=C2)c2ccc(N(C)C)cc2)cc1
inactive: [20] 97 % of control | [21] 105 % of control

NNS(=O)(=O)c1ccc(N=Nc2ccccc2)cc1
inactive: [10] 90 % of control | [13] 93 % of control | [16] 97 % of control
